Test results reported in US5565432A (American Home Products Corporation, priority 1994, dated 1996).
Counter-ions that a name gives are not always drawn.

How the values were obtained:
normal human plasma = assay: Anticoagulant activity, partial thromboplastin time (APTT) assay; conditions: for Anticoagulation Activity (APTT) Relative to Heparin: ratio>1 indicates weaker activity relative to heparin on a μg/mL basis
Procedure: The anticlotting activity of the compounds of this invention were evaluated in a partial thromboplastin time (APTT) assay using normal human plasma collected from 5 donors using the procedure of Fenichel et. al. (Clin. Chem. 1964, 10, 69). A BBL Fibrometer automatic precesion coagulation timer utilizing a 0.3 ml probe was employed. An Ellagic acid activated partial thromboplastin was used for these experiments. This reagent is added to human citrated plasma equilibrated at 37° C. in a plastic well in the clot timer. Calcium at 37° C. is added, the clot timer is started and the time for fibrin clot formation (in seconds) was recorded. The effect of the compounds, added to plasma, over a concentration of 12.5-200 μg/mL was determined. […] An unfractionated heparin comparator was used over the concentration range of 1.25-10 μg/mL. Clotting tests at all concentrations were run in triplicate. Analysis of variance for a randomized block design was used to determine the significance of differences observed in the clotting times. The potency is reported relative to heparin wherein ratio>1 indicates weaker activity relative to heparin on a μg/mL basis.

[1] = tested on: human aortic endothelial cells; assay: Effect on human endothelial cell growth; format: cell-based; conditions: driven by 2% FBS, at doses inhibitory towards human smooth muscle cell proliferation driven by 10% FBS (FIG. 1)
Procedure: The ability of the compounds of the present invention to inhibit smooth muscle cell proliferation and modulate endothelial cell growth was established using isolated aortic cells obtained from commercial sources or, for certain species, prepared in-house. Cell lines used in this study include human and porcine aortic smooth muscle cells and human aortic endothelial cells. Human aortic cell lines were obtained from Clonetics Corporation (San Diego).
Cells were assayed in early passage (generally passage 3-7) at sub-confluent conditions. Cultures were grown in 16 mm (24 well) multi-well culture dishes in media 199 supplemented with 10% fetal bovine serum and 2% antibiotic/antimycotic. At sub-confluence, the cells were placed in a defined serum free medium (AIM-V; Gibco) for 24-48 h prior to initiating the experimental protocol.
Growth factor and serum stimulations were optimized for each cell type.
Compounds were added to each well at 50 fold dilution (20 μL/well) and the plates were incubated for 24-36 h at 37° C. in 5% CO2. […] Compounds were routinely assayed at 1, 10, and 100 μM. […]
Data was obtained, in triplicate, for both control and experimental samples. […] Data was expressed as a percent of control from which IC50 s could be determined. […]

[2] = tested on: common carotid artery, intimal thickening; assay: Experimental model of restenosis (air-dried carotid artery), intimal thickening; format: in vivo, Male Sprague-Dawley Rats; conditions: in comparison to untreated animals; dose of 125 μg/mL, i.v. osmotic pump, 2 weeks
From the text: Male Sprague-Dawley Rats weighing between 0.3-0.4 kg were housed in polycarbonate cages (2 per box) with corn cob bedding and provided with Purina 5001 rat chow and water (ad. lib. A 12 hr/12 hr light: dark cycle was maintained with light on at 7:00 A.M). After acclimation, rats were randomly assigned to treatment groups (12 per group). The rats were anesthetized with Ketamine, Acepromazone, and Xylazine. The anterior portion of the neck was shaved, a 3 cm incision was made along the midline, and the trachea was exposed by gently parting the underlying tissues and muscle. A retractor was inserted to hold the muscles and tissues aside and the common carotid artery was isolated from the surrounding tissue. A 2 cm segment of the right common carotid artery was lifted such that an 11 mm approximator was placed on the vessel at about […] before the bifurcation of the internal and external branches of the carotid artery. The 5 mm segment of the common carotid artery between the clamps of the approximator was punctured at about 0.5 mm from the edge of each clamp with a 30 G needle and a gentle stream of isotonic saline was injected through the isolated segment to flush out any blood. […]
Two weeks following surgery, the rats were sacrificed via anesthetized exsanquination. […] The cross sections were photographed and the arterial media and intima were digitized and measured. […]

smooth muscle cell = conditions: prior art; cited from earlier work
restenosis = conditions: prior art; cited from earlier work

Molecule: Cc1ccc(CO[C@@H]2O[C@H](COS(=O)(=O)O)[C@@H](O[C@@H]3O[C@H](COS(=O)(=O)O)[C@@H](OS(=O)(=O)O)[C@H](OS(=O)(=O)O)[C@H]3OS(=O)(=O)O)[C@H](OS(=O)(=O)O)[C@H]2OS(=O)(=O)O)cc1NC(=O)c1cc(C(=O)Nc2cc(CO[C@@H]3O[C@H](COS(=O)(=O)O)[C@@H](O[C@@H]4O[C@H](COS(=O)(=O)O)[C@@H](OS(=O)(=O)O)[C@H](OS(=O)(=O)O)[C@H]4OS(=O)(=O)O)[C@H](OS(=O)(=O)O)[C@H]3OS(=O)(=O)O)ccc2C)cc(C(=O)Nc2cc(CO[C@@H]3O[C@H](COS(=O)(=O)O)[C@@H](O[C@@H]4O[C@H](COS(=O)(=O)O)[C@@H](OS(=O)(=O)O)[C@H](OS(=O)(=O)O)[C@H]4OS(=O)(=O)O)[C@H](OS(=O)(=O)O)[C@H]3OS(=O)(=O)O)ccc2C)c1 [Example 9, Benzene-1,3,5-tricarboxylic Acid Tris{[2-methyl-5-(hepta-O-sulfato-β-cellobiosyloxymethyl)phenyl]amide}Heneicosasodium Salt]
- Anticoagulation Activity (APTT), in words (normal human plasma; at 25-200 μg/mL): no signifcant

Molecule: O=C(Nc1cc(CO[C@@H]2O[C@H](COS(=O)(=O)O)[C@@H](O[C@@H]3O[C@H](COS(=O)(=O)O)[C@@H](OS(=O)(=O)O)[C@H](OS(=O)(=O)O)[C@H]3OS(=O)(=O)O)[C@H](OS(=O)(=O)O)[C@H]2OS(=O)(=O)O)ccc1Cl)c1cc(C(=O)Nc2cc(CO[C@@H]3O[C@H](COS(=O)(=O)O)[C@@H](O[C@@H]4O[C@H](COS(=O)(=O)O)[C@@H](OS(=O)(=O)O)[C@H](OS(=O)(=O)O)[C@H]4OS(=O)(=O)O)[C@H](OS(=O)(=O)O)[C@H]3OS(=O)(=O)O)ccc2Cl)cc(C(=O)Nc2cc(CO[C@@H]3O[C@H](COS(=O)(=O)O)[C@@H](O[C@@H]4O[C@H](COS(=O)(=O)O)[C@@H](OS(=O)(=O)O)[C@H](OS(=O)(=O)O)[C@H]4OS(=O)(=O)O)[C@H](OS(=O)(=O)O)[C@H]3OS(=O)(=O)O)ccc2Cl)c1 [Example 11]
- Anticoagulation Activity (APTT) Relative to Heparin (normal human plasma): 72
- human endothelial cell growth [1]: enhance human endothelial cell growth
- inhibition of intimal thickening [2]: 50%

Molecule: O=C(Nc1cc(CO[C@@H]2O[C@H](COS(=O)(=O)O)[C@@H](O[C@@H]3O[C@H](COS(=O)(=O)O)[C@@H](OS(=O)(=O)O)[C@H](OS(=O)(=O)O)[C@H]3OS(=O)(=O)O)[C@H](OS(=O)(=O)O)[C@H]2OS(=O)(=O)O)cc(CO[C@@H]2O[C@H](COS(=O)(=O)O)[C@@H](O[C@@H]3O[C@H](COS(=O)(=O)O)[C@@H](OS(=O)(=O)O)[C@H](OS(=O)(=O)O)[C@H]3OS(=O)(=O)O)[C@H](OS(=O)(=O)O)[C@H]2OS(=O)(=O)O)c1)c1cc(C(=O)Nc2cc(CO[C@@H]3O[C@H](COS(=O)(=O)O)[C@@H](O[C@@H]4O[C@H](COS(=O)(=O)O)[C@@H](OS(=O)(=O)O)[C@H](OS(=O)(=O)O)[C@H]4OS(=O)(=O)O)[C@H](OS(=O)(=O)O)[C@H]3OS(=O)(=O)O)cc(CO[C@@H]3O[C@H](COS(=O)(=O)O)[C@@H](O[C@@H]4O[C@H](COS(=O)(=O)O)[C@@H](OS(=O)(=O)O)[C@H](OS(=O)(=O)O)[C@H]4OS(=O)(=O)O)[C@H](OS(=O)(=O)O)[C@H]3OS(=O)(=O)O)c2)cc(C(=O)Nc2cc(CO[C@@H]3O[C@H](COS(=O)(=O)O)[C@@H](O[C@@H]4O[C@H](COS(=O)(=O)O)[C@@H](OS(=O)(=O)O)[C@H](OS(=O)(=O)O)[C@H]4OS(=O)(=O)O)[C@H](OS(=O)(=O)O)[C@H]3OS(=O)(=O)O)cc(CO[C@@H]3O[C@H](COS(=O)(=O)O)[C@@H](O[C@@H]4O[C@H](COS(=O)(=O)O)[C@@H](OS(=O)(=O)O)[C@H](OS(=O)(=O)O)[C@H]4OS(=O)(=O)O)[C@H](OS(=O)(=O)O)[C@H]3OS(=O)(=O)O)c2)c1 [Example 14, Benzene-1,3,5-tricarboxylic Acid Tris{[3,5-bis-(hepta-O-sulfato-β-D-cellobiosyloxymethyl)phenyl]amide}Tetratetracontasodium Salt]
- Anticoagulation Activity (APTT) Relative to Heparin (normal human plasma): 3.1

Molecule: Beta-Cyclodextrin tetradecasulfate
- SMC proliferation inhibition (literature) (smooth muscle cell): smooth muscle cell proliferation inhibitor
- inhibition of restenosis (literature) (restenosis): effective inhibitor of restenosis
